Measured values published in patent US9598441B2, “Therapeutic compounds and methods” (Wayne State University, priority 2011, dated 2017).
pIC50: −log10 of the molar value. Each block holds one molecule with its values, some of them ahead of it. Residues, ends and D or L forms follow the SMILES beside them. *: point of attachment. Cbz = O=C(OCc1ccccc1)*; CH2F = FC*

Legend:
[1] = test system: CARP-1, cyclin B1, Cdc20, Cdh1, APC-2, CDKIs, caspases, p38, Bcl2 family proteins; experiment: Western blot of protein levels in treated cells; format: cell-based; settings: for effect of pre-treatment on CFM-4-dependent loss of cyclin B1 and Cdc20 proteins (WB): pre-treatment before CFM-4
Description: (§1) Logarithmically growing cells were either untreated or treated with different agents for various time periods. The cells were lysed to prepare protein extracts. IP was carried out by incubating approximately 1 mg of the protein lysate with appropriate antibodies, and the immunoprecipitates or cell lysates were then electrophoresed on 9-12% SDS-polyacrylamide gels, and transferred to nitrocellulose membranes. The membranes were subsequently probed with various antibodies to determine expression/presence of the corresponding proteins. The cell growth inhibition was assessed by using MTT assay. Briefly, MTT (3-[4,5-Dimethylthiazol-2-yl]-2,5diphenyltetrazolium bromide) was dissolved in sterile 1×PBS to prepare a stock solution of 5 mg/ml. The solution was subsequently filtered through 0.2 μm filter and stored at 2-8° C. 4−5×10^2 cells were seeded in 96-well plates. After 72 h incubation with or without different agents, MTT stock solution was added to each culture being assayed to equal one tenth the original culture volume, followed by incubation of cells at 37° C. for another 2 h. At the end of the incubation, the media was removed and cells were treated with 100-200 μl of DMSO to solubilize the dye. The assessment of the live cells was derived by measuring the absorbance of the converted dye at wavelength of 570 nm.

Gst-APC-2 (685-754) = biological target: T1, Gst-APC-2 (685-754) (Homo sapiens, UniProt Q9UJX6); experiment: In vitro binding of SMIs, immobilized Gst-APC-2 pre-incubated with CFM; settings: WB with anti HA-tag
T1 construct: immobilizing the Gst-APC-2 (685-754) peptide with Gst-beads; made in house; host or cells: E. coli BL-21 (DE3)
Description: (§2) The CFM-4 and 5 were separately dissolved in DMSO to obtain a stock of 20-50 mM. For in vitro binding experiments we utilized affinity-purified Gst-APC-2 (685-754) and His-TAT-HA-tagged A-epitope (WT) peptide. Ten nanogram of the His-TAT-HA-tagged A-epitope (WT) peptide was first allowed to bind with Ni-NTA beads (ProBond, InVitrogen), and then the reaction was incubated with DMSO (control), 100 μM CFM-4, or 100 μM CFM-5 for 30 min at RT. The reactions were then subjected to three washes with the binding buffer, followed by incubation with 10 ng of affinity-purified Gst-APC-2 (685-754) peptide for 30 min at RT. The reactions were washed again for three times with PBS, eluted and analyzed on a SDS-PAGE followed by western blotting (WB) with anti-Gst antibodies. A similar strategy was performed by immobilizing the Gst-APC-2 (685-754) peptide with Gst-beads. The beads were washed, incubated with DMSO or the CFMs, and the reactions washed again. The reactions were then allowed to incubate with affinity purified A-epitope peptide, and the complexes analyzed by SDS-PAGE followed by WB with anti HA-tag antibodies.

[2] = biological target: T2, CARP-1 binding with APC-2 (Homo sapiens, UniProt Q8IX12); experiment: Fluorescence polarization assay (FPA) for inhibitors of CARP-1-APC-2 binding; settings: fluorescein-tagged A-epitope peptide and Gst-APC-2 (685-754)
T2 construct: made in house; host or cells: E. coli BL-21 (DE3)
T2 sequence (Q8IX12 951-980 limits assumed): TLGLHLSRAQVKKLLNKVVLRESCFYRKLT
Description: Although, several formats for FP are indicated in the published literature (Inglese, J., Johnson, R. L., Simeonov, A., Xia, M., Zheng, W., Austin, C. P., Auld, D. S. (2007) Nat. Chem. Biol. 3(8), 466-79), the assays using 96-well or higher density plates are often and routinely employed. Optimization of FP for HTS involves several steps including the determination of Kd values, optimization of the buffer conditions, incubation and measurement times, and determination of the DMSO tolerance of the assay. Our goal was to minimize variation and to aim for adequate signal:background without adversely effecting the sensitivity of the assay. The FP polarization values in milli-polarization (mp) were measured to determine changes in the mp (Amp=mp of bound peptide mp of free peptide), the Kd and Ki constants of the binding. A 30-mer CARP-1 peptide that contained APC-2-binding epitope (A-epitope peptide) was commercially synthesized (US Biologicals, MA), labeled with fluorescein at the N-terminus, and purified to >98% purity. Increasing concentrations of A-epitope peptide were incubated with the indicated quantities of the affinity-purified Gst-APC-2 (685-754) protein in assay buffer containing 0.01% triton-X100. Affinity-purified Gst-NEMO (221-317) was included as a negative control. The Δmp was measured by excitation at 485 nm and emission at 538 nm.
The kinetics of CARP-1 binding with APC-2 was determined, and whether this binding could be exploited to identify SMIs of CARP-1-APC-2 interaction was investigated. For this purpose, a FPA utilizing the affinity-purified Gst-APC-2 (685-754) protein and the fluorescein-tagged A-epitope peptide was developed as detailed in methods. […] The signal to background ratio of 6 underscored robustness of this assay. Since, the quality (precision) and suitability of the FPA for HTS is usually defined by the Z′ factor (25, 40), we utilized the positive and negative control mean signals (μc+ and μc−, respectively) and their standard deviations (σc+ and σc−) to calculate the Z′ factor using the equation Z′=1−[3(σc++σc−)/(μc+−μc−)]. […]

[3] = biological target: T3, His-TAT-HA-tagged A-epitope peptide [CARP-1 (951-980)] (Homo sapiens, UniProt Q8IX12); experiment: In vitro binding of SMIs, immobilized A-epitope peptide pre-incubated with CFM; settings: 100 μM, 30 min at RT; WB with anti-Gst
T3 construct: wild-type or scrambled His-TAT-HA-CARP-1 (951-980) peptides; made in house; host or cells: E. coli BL-21 (DE3)
T3 sequence (Q8IX12 951-980 limits assumed): T2 sequence (Q8IX12 951-980 limits assumed)
Description: as §2

[4] = test system: caspase-3, caspase-8, caspase-9, caspase-2; experiment: ApoAlert Caspase profiling plate, fluorescence-based; format: cell-based; settings: pre-treatment before CFM-4
Description: For apoptosis ELISA assay, 4−5×10^2 cells were seeded in 96-well plates and treated essentially as indicated in the MTT assay above. Untreated as well as treated cells were lysed, and levels of mono and oligo-nucleosomal DNA fragments in the lysates were determined by measuring optical density of each sample at 405 nm and 495 nm wavelengths. […] For TUNEL labeling, the cells were treated with various agents, fixed, labeled and photographed essentially as detailed in immuno-localization protocols described before (Zhang, L., Levi, E., Majumder, P., Yu, Y., Aboukameel, A., Du, J., Xu, H., Mohammad, R. M., Hatfield, J. S., Wali, A., Adsay, V., Majumdar, A. P. N., and Rishi, A. K. (2007) Mol. Cancer. Ther. 6(5), 1661-1672). […] Cell lysates derived from vehicle DMSO (Control) or CFM-4-treated cells were added to the wells that had immobilized fluorogenic caspase-3, caspase-8, caspase-9, or caspase-2 substrates. The fluorescence released from the activated caspase-dependent cleavage of respective substrate was detected by a plate reader at the excitation and emission wavelengths of 380 nm and 460 nm, respectively.

[5] = test system: HBC, colon, prostate, pancreatic cancer, MPM and lymphoma cells; experiment: MTT cell viability assay, cancer cells; format: cell-based, human; settings: combination with CFM-4
Description: as §1
To test whether CFMs that interfere with CARP-1 binding with APC-2 modulate cell growth, HBC, colon, prostate, pancreatic cancer, MPM and lymphoma cells, as well as the immortalized, mammary epithelial MCF-10A cells were utilized. The cells were either treated with vehicle (DMSO) or various doses of the respective compound for a period of 72 h, and percent of live/viable cells for each compound was determined relative to the untreated controls as described in Methods.

T1 sequence (Q9UJX6 685-754): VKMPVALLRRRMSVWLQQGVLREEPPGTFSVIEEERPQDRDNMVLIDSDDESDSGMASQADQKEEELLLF

Structure (SMILES): CC[C@H](C)[C@H](NC(=O)[C@H](CCC(=O)O)NC(=O)[C@@H](NC(C)=O)C(C)C)C(=O)N[C@H](C=O)CC(=O)O [Ac-VEOD-CHO, reference compound] (Ac-VEID-aldehyde)
- effect of pre-treatment on CFM-4-dependent loss of cyclin B1 and Cdc20 proteins (WB) [1]: blocked CFM-4-dependent loss

- binding of immobilized Gst-APC-2 (685-754) with A-epitope peptide after pre-incubation with compound (Gst-APC-2 (685-754)): failed to abolish its binding
- pIC50 [2]: 5.85
- binding of immobilized A-epitope peptide with Gst-APC-2 (685-754) after pre-incubation with compound [3]: abrogated its binding
Structure (SMILES): O=C1N(CCc2ccccc2)c2ccc(Br)cc2C12NN=C(c1ccccc1)S2 (stereo not shown) [CFM-5, 5-bromo-1-phenethyl-5′-phenyl-3′H-spiro[indoline-3,2′-[1,3,4]thiadiazol]-2-one]

Structure (SMILES): CC(C)C[C@H](NC(=O)[C@H](Cc1ccccc1)NC(=O)c1cnccn1)B(O)O [velcade, Bortezomib, reference compound]
- CARP-1 levels (WB) ([1]; 50 nM velcade 6 h or 24 h, 20 μM CFM-4 24 h): modest increase in CARP-1 levels
- effect on CFM-4-dependent loss of cyclin B1 or Cdc20 proteins (WB) ([1]; 50 nM velcade combined with 20 μM CFM-4): failed to interfere

Structure (SMILES): CC[C@H](C)[C@H](NC(=O)OCc1ccccc1)C(=O)N[C@@H](CCC(=O)OC)C(=O)N[C@H](C(=O)N[C@@H](CC(=O)OC)C(=O)CF)[C@@H](C)O [z-IETD-fmk] (Cbz-IE(OMe)TD(OMe)-CH2F)
- effect of pre-treatment on CFM-4-dependent activation of caspase 8 or caspase 9 [4]: abolished activation

Structure (SMILES): COC(=O)CC[C@H](NC(=O)[C@H](CC(C)C)NC(=O)OCc1ccccc1)C(=O)N[C@@H](Cc1cnc[nH]1)C(=O)N[C@@H](CC(=O)OC)C(=O)CF [z-LEHD-fmk] (Cbz-LE(OMe)HD(OMe)-CH2F)
- effect of pre-treatment on CFM-4-dependent activation of caspase 8 or caspase 9 [4]: abolished activation

Structure (SMILES): COC(=O)C[C@H](NC(=O)[C@H](C)NC(=O)[C@@H](NC(=O)OCc1ccccc1)C(C)C)C(=O)CF [zVAD-fMK, z-VAD-fmk, reference compound] (Cbz-Val-Ala-Asp(OMe)-CH2F)
- effect on cell growth suppression by CFM-4 (MTT) [5]: blocked the ability of CFM-4 to suppress cell growth
- effect of pre-treatment on CFM-4-dependent loss of cyclin B1 and Cdc20 proteins (WB) [1]: blocked CFM-4-dependent loss
